{"source": "patent US20190119284A1", "about": "“ErbB Inhibitors and Uses Thereof” (The Regents of the University of California, priority 2016, published 2019)", "key": {"wt HER2 or HER2 T798M": {"test_system": "wt HER2 or HER2 T798M", "assay": "HEK-293T cells transfected with wt HER2 or HER2 T798M", "assay_type": "cell-based", "conditions": "HER2 T798M vs wt, 1 nM-10 μM"}, "EGFR": {"molecular_target": "EGFR (Homo sapiens, UniProt P00533)", "sequence (P00533 25-1210)": "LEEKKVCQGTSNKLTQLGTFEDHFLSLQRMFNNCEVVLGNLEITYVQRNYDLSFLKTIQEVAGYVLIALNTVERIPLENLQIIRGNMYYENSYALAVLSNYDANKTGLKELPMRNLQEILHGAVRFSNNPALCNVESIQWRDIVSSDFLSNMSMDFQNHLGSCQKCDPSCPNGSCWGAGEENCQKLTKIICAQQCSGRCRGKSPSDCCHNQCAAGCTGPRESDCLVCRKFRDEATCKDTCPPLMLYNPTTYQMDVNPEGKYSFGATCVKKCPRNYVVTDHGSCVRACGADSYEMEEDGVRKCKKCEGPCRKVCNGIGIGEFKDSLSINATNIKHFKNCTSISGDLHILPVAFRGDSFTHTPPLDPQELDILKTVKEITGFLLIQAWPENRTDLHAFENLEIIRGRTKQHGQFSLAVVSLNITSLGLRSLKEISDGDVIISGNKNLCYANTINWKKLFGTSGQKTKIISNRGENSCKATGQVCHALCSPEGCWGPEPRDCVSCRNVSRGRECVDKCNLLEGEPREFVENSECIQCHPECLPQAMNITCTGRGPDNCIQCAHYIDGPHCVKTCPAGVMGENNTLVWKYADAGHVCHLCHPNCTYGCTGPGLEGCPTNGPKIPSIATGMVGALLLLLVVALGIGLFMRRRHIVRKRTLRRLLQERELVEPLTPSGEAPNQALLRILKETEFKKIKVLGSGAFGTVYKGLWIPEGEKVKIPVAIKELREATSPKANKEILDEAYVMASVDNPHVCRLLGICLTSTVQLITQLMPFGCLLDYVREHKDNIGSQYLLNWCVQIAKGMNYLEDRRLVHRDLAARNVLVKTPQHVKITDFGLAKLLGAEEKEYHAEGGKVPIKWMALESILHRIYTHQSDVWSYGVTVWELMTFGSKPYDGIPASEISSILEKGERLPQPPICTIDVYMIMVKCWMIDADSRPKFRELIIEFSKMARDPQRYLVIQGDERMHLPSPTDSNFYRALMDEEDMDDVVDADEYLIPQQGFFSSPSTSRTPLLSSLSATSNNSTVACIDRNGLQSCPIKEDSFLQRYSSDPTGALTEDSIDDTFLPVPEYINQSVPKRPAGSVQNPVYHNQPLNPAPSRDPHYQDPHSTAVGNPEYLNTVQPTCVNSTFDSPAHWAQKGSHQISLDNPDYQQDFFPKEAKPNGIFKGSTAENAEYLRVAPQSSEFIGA", "assay": "Nanosyn in vitro kinase profiling: EGFR", "assay_type": "biochemical", "conditions": "for inhibition at 1 µM: compound at 1 μM", "method": "(§1) This was confirmed by in vitro profiling against a panel of kinases, with compound 2 only showing potent inhibition of EGFR and Ab1 (Table 2).\n(§2) In vitro Kinome Screen. In vitro profiling of compound 2 at 100 nM was conducted by Nanosyn."}, "BLK": {"molecular_target": "BLK (Homo sapiens, UniProt P51451)", "assay": "Nanosyn in vitro kinase profiling: BLK", "assay_type": "biochemical", "method": "as §1, §2"}, "KDR": {"molecular_target": "KDR (Homo sapiens, UniProt P35968)", "sequence (P35968 20-1356)": "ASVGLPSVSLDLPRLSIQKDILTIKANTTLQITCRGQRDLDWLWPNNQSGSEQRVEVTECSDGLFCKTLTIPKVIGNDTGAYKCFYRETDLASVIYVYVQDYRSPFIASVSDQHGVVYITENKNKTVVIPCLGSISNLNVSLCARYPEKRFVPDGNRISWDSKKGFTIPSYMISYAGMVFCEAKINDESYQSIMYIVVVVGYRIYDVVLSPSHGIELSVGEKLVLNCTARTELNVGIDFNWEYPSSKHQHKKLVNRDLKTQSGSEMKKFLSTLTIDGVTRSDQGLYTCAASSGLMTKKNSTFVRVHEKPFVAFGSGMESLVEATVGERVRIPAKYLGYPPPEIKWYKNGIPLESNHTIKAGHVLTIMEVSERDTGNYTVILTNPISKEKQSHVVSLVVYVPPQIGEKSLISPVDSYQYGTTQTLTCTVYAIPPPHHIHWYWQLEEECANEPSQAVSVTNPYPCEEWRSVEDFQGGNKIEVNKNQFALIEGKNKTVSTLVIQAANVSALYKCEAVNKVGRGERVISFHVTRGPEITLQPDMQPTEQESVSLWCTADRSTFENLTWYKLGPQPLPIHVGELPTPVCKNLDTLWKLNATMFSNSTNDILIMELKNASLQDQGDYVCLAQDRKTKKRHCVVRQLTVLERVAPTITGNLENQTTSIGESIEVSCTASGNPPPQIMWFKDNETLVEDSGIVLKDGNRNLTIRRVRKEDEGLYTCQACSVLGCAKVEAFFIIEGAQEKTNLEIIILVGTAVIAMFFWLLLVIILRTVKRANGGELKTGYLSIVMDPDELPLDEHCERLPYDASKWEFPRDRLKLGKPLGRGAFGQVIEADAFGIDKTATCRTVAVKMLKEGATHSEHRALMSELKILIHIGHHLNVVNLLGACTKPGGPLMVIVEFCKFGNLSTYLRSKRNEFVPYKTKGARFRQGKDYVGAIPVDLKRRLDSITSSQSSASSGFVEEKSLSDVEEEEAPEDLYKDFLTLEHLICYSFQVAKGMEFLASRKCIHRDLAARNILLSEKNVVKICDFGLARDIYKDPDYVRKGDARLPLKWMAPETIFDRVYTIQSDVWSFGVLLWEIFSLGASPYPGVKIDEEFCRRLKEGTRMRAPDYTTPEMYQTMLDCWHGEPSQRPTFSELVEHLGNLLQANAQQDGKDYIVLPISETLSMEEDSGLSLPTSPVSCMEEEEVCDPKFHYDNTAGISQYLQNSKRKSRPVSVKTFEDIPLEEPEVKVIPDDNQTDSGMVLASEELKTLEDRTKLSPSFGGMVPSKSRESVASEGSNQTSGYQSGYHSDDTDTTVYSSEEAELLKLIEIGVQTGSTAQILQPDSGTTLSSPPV", "assay": "Nanosyn in vitro kinase profiling: KDR", "assay_type": "biochemical", "conditions": "for inhibition at 1 µM: compound at 1 μM", "method": "as §1, §2"}, "GSK-3-BETA": {"molecular_target": "GSK-3-BETA (Homo sapiens, UniProt P49841)", "sequence (P49841 whole entry)": "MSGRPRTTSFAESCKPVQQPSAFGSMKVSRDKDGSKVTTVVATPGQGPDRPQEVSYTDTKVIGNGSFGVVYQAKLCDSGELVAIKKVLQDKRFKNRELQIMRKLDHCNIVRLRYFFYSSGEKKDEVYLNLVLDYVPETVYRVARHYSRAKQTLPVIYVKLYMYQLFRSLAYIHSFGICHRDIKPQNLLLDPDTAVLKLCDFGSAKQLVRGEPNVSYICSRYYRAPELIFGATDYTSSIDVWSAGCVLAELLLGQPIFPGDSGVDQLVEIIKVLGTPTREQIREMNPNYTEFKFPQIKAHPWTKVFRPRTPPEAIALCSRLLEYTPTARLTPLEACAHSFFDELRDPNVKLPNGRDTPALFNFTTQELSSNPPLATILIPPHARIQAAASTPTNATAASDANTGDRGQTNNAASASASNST", "assay": "Nanosyn in vitro kinase profiling: GSK-3-BETA", "assay_type": "biochemical", "conditions": "for inhibition at 1 µM: compound at 1 μM", "method": "as §1, §2"}, "CSK": {"molecular_target": "CSK (Homo sapiens, UniProt P41240)", "sequence (P41240 whole entry, species assumed)": "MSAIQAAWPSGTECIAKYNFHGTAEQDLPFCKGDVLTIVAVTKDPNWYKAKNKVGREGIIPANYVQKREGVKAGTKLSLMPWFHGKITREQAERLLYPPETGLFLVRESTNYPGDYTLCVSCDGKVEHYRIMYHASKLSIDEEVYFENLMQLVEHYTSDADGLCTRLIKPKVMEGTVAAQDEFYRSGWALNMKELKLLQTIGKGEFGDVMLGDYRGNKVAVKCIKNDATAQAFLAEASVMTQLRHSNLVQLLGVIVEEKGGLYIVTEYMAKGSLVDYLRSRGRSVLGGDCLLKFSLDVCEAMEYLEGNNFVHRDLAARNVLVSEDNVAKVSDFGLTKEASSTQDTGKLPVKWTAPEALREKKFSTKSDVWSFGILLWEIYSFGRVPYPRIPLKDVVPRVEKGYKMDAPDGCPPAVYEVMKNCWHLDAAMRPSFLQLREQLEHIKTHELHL", "assay": "Nanosyn in vitro kinase profiling: CSK", "assay_type": "biochemical", "conditions": "for inhibition at 1 µM: compound at 1 μM", "method": "as §1, §2"}, "TYRO3": {"molecular_target": "TYRO3 (Homo sapiens, UniProt Q06418)", "sequence (Q06418 41-890, species assumed)": "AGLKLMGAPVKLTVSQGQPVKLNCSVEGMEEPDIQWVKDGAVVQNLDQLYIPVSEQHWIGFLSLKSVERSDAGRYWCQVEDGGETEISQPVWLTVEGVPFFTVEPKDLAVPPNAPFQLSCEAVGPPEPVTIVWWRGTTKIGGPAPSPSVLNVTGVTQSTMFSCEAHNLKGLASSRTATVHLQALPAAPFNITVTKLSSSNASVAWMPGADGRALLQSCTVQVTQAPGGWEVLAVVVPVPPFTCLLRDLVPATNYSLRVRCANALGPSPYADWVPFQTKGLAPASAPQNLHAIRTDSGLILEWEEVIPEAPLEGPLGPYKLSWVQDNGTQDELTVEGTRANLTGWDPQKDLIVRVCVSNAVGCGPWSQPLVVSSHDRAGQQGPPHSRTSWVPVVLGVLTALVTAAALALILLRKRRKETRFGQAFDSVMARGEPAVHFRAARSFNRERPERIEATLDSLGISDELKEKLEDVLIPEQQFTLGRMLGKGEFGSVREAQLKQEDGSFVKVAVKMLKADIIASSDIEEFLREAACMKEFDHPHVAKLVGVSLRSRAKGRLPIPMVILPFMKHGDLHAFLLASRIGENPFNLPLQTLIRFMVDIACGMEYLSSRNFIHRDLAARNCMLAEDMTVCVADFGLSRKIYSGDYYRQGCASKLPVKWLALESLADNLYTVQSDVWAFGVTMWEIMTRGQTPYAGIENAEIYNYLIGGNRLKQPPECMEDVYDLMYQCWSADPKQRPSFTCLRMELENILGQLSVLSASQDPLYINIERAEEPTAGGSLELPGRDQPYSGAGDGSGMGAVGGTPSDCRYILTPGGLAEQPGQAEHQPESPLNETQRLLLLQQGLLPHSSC", "assay": "Nanosyn in vitro kinase profiling: TYRO3", "assay_type": "biochemical", "method": "as §1, §2"}, "MAPKAPK-2": {"molecular_target": "MAPKAPK-2 (Homo sapiens, UniProt P49137)", "sequence (P49137 whole entry, species assumed)": "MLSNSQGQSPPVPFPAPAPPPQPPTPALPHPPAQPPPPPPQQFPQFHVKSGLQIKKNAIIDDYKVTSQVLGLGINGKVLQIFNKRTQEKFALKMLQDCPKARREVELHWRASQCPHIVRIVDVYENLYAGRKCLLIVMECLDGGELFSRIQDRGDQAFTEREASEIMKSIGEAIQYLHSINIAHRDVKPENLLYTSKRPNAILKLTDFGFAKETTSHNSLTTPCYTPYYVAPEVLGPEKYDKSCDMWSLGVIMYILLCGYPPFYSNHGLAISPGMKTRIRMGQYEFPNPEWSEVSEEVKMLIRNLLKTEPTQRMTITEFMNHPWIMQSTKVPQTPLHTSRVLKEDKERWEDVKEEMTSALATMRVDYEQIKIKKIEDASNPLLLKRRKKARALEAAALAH", "assay": "Nanosyn in vitro kinase profiling: MAPKAPK-2", "assay_type": "biochemical", "conditions": "for inhibition at 1 µM: compound at 1 μM", "method": "as §1, §2"}, "SK-BR-3 cells": {"test_system": "SK-BR-3 cells", "assay": "72 h proliferation of SK-BR-3 cells in the presence or absence of NRG", "assay_type": "cell-based", "conditions": "SK-BR-3, 72 h dose response +/- NRG", "method": "FIGS. 1A-1E. NRG rescues HER2 over-expressing cancer cells from HER2 inhibitors. […] FIG 1B: Same experiment as depicted in FIG. 1A, but with the inhibitor TAK-285. FIG. 1C: The ability of NRG to rescue SK-BR-3 and BT-474 cell proliferation from HER2 inhibitors is dose dependent. Cells were treated with 1 μM of the indicated inhibitor in the presence of varying concentrations of NRG, and proliferation was read out after 72 h (mean±SD, n=3). […] FIG. 1E: Cartoon schematic of the EGFR family kinase domain asymmetric dimer. The C-terminal domain of the ‘activator’ kinase (right) interacts with the N-terminal portion of the ‘receiver’ kinase (left). This interaction stabilizes the active conformation of the receiver kinase identified by the ‘in’ conformation of the receiver kinase's α-C helix and the ordered extension of the activation loop.\n(§3) FIGS. 5A-5D. […] FIG. 5A: Chemical structure of compound 3 (also referred to herein as compound 178). FIG. 5B: Proliferation curves for compound 3 against the Ba/F3 cell line panel (mean±SD, n=3). […] FIG. 5D: The same assay in FIG. 2A was performed with compound 3 in SK-BR-3 cells."}, "CHL-1 cells": {"test_system": "CHL-1 cells", "assay": "growth of CHL-1 cells over 96 h (IncuCyte Zoom confluence)", "assay_type": "cell-based", "conditions": "CHL-1, 96 h, compared with lapatinib"}, "[1]": {"test_system": "HER2/HER3 signaling in CHL-1 cells", "assay": "HER2/HER3 signaling in CHL-1 cells", "assay_type": "cell-based", "conditions": "compared with lapatinib"}, "MST2": {"molecular_target": "MST2 (Homo sapiens, UniProt Q13188)", "assay": "Nanosyn in vitro kinase profiling: MST2", "assay_type": "biochemical", "conditions": "compound at 1 μM"}, "MEK2": {"molecular_target": "MEK2 (Homo sapiens, UniProt P36507)", "sequence (P36507 whole entry, species assumed)": "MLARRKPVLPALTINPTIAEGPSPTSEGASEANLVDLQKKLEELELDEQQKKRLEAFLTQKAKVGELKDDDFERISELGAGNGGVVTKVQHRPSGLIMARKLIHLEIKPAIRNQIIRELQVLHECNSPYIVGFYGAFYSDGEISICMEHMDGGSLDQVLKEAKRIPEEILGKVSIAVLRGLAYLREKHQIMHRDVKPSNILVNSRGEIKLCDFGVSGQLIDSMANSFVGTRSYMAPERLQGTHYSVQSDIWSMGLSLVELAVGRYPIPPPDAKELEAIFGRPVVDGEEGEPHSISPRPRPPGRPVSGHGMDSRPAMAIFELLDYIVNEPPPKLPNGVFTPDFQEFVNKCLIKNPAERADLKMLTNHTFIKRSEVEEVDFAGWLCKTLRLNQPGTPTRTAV", "assay": "Nanosyn in vitro kinase profiling: MEK2", "assay_type": "biochemical", "conditions": "compound at 1 μM"}, "TYK2": {"molecular_target": "TYK2 (Homo sapiens, UniProt P29597)", "assay": "Nanosyn in vitro kinase profiling: TYK2", "assay_type": "biochemical", "conditions": "compound at 1 μM"}, "CDK1": {"molecular_target": "CDK1 (Homo sapiens, UniProt P06493)", "assay": "Nanosyn in vitro kinase profiling: CDK1", "assay_type": "biochemical", "conditions": "compound at 1 μM"}, "PI3K-ALPHA": {"molecular_target": "PI3K-ALPHA (Homo sapiens, UniProt P42336)", "assay": "Nanosyn in vitro kinase profiling: PI3K-ALPHA", "assay_type": "biochemical", "conditions": "compound at 1 μM"}, "CAMK4": {"molecular_target": "CAMK4 (Homo sapiens, UniProt Q16566)", "assay": "Nanosyn in vitro kinase profiling: CAMK4", "assay_type": "biochemical", "conditions": "compound at 1 μM"}, "MAPK1": {"molecular_target": "MAPK1 (Homo sapiens, UniProt P28482)", "assay": "Nanosyn in vitro kinase profiling: MAPK1", "assay_type": "biochemical", "conditions": "compound at 1 μM"}, "FAK": {"molecular_target": "FAK (Homo sapiens, UniProt Q05397)", "assay": "Nanosyn in vitro kinase profiling: FAK", "assay_type": "biochemical", "conditions": "compound at 1 μM"}, "[2]": {"molecular_target": "mutationally activated forms of EGFR (Homo sapiens, UniProt P00533, DEL746-750)", "assay": "EGFR phosphosite signaling in HCC 827 cells", "assay_type": "cell-based", "design": "endogenous in cells; host or cells: HCC 827 (A1)", "conditions": "concentration giving near complete inhibition"}, "[3]": {"test_system": "Ba/F3 cell line panel (HER2YF/HER3)", "assay": "48 h proliferation of the Ba/F3 cell line panel (CellTiter-Glo)", "assay_type": "cell-based", "conditions": "48 h proliferation curves", "method": "FIGS. 3A-3D. Design and execution of a high-throughput screen identifies a novel HER2/HER3 inhibitor. FIG. 3A: 2YF/3wt cells were incubated in the presence or absence of NRG for 48 h and proliferation was assessed by CellTiter-Glo (mean±SD, n=1). […] FIG. 3C: Structure and proliferation curves for hit compound 1 (also referred herein as compound 185) against the Ba/F3 cell line panel (mean±SD, n=3), FIG. 3D: Structure and proliferation curves for compound 2 (also referred to herein as compound 55A) against the panel of Ba/F3 cell lines (mean±SD, n=3).\nFIGS. 4A-4F. Compound 2 is a selective Type I inhibitor for HER2. […] FIG. 4B: Thermal stabilization of the HER3 kinase domain by either compound 2 or ATP as determined by Thermofluor (mean±SD, n=3). FIGS. 4C-4D: The crystal structure of either erlotinib (FIG. 4C) or 2 (FIG. 4D) bound to EGFR V924R. The kinase domain in complex with compound 2 has been stabilized in the active confirmation by drug binding, despite the mutation—as evidenced by the ordered extension of the activation loop and the inward positioning of the α-C helix.\nas §3\nFIG. 10. […]"}}}
{"smiles": "COc1ccc(-c2ccco2)cc1Nc1ncnc2[nH]nc(-c3ccco3)c12", "note": "[compound 2, 3-(furan-2-yl)-N-(5-(furan-2-yl)-2-methoxyphenyl)-1H-pyrazolo[3,4-d]pyrimidin-4-amine]", "values": [{"measurement": "effect of gatekeeper mutation on binding affinity", "setting": "wt HER2 or HER2 T798M", "value": "reduces the binding affinity"}, {"measurement": "inhibition at 0.1 µM", "setting": "EGFR; compound at 100 nM", "value": 95.6, "unit": "%"}, {"measurement": "inhibition at 1 µM", "setting": "EGFR", "value": 96.9, "unit": "%"}, {"measurement": "inhibition at 0.1 µM", "setting": "BLK; compound at 100 nM", "value": 59.9, "unit": "%"}, {"measurement": "inhibition at 1 µM", "setting": "BLK; compound at 1 μM", "value": 90.4, "unit": "%"}, {"measurement": "inhibition at 0.1 µM", "setting": "KDR; compound at 100 nM", "value": 27.3, "unit": "%"}, {"measurement": "inhibition at 1 µM", "setting": "KDR", "value": 71.3, "unit": "%"}, {"measurement": "inhibition at 0.1 µM", "setting": "GSK-3-BETA; compound at 100 nM", "value": 20.5, "unit": "%"}, {"measurement": "inhibition at 1 µM", "setting": "GSK-3-BETA", "value": 68.8, "unit": "%"}, {"measurement": "inhibition at 0.1 µM", "setting": "CSK; compound at 100 nM", "value": 6.96, "unit": "%"}, {"measurement": "inhibition at 1 µM", "setting": "CSK", "value": 24.8, "unit": "%"}, {"measurement": "inhibition at 0.1 µM", "setting": "TYRO3; compound at 100 nM", "value": 3.29, "unit": "%"}, {"measurement": "inhibition at 1 µM", "setting": "TYRO3; compound at 1 μM", "value": 5.56, "unit": "%"}, {"measurement": "inhibition at 0.1 µM", "setting": "MAPKAPK-2; compound at 100 nM", "value": 0.12, "unit": "%"}, {"measurement": "inhibition at 1 µM", "setting": "MAPKAPK-2", "value": 0.575, "unit": "%"}]}
{"smiles": "COc1ccc(-c2ccoc2)cc1Nc1ncnc2[nH]cc(-c3cc[nH]n3)c12", "note": "[compound 3, N-(5-(furan-3-yl)-2-methoxyphenyl)-5-(1H-pyrazol-3-yl)-7H-pyrrolo[2,3-d]pyrimidin-4-amine]", "values": [{"measurement": "sensitivity of proliferation inhibition to NRG", "setting": "SK-BR-3 cells", "value": "insensitive to the presence of NRG"}, {"measurement": "reduction of cell growth (confluence)", "setting": "CHL-1 cells", "value": "more effective at reducing the growth of CHL-1 cells"}, {"measurement": "inhibition of feedback activated HER2/HER3 signaling", "setting": "[1]; CHL-1, after 24 h DMSO or 500 nM lapatinib, then 24 h dose response", "value": "better able to inhibit feedback activated HER2/HER3 signaling"}, {"measurement": "inhibition of p-HER3 and PI3K/Akt pathway", "setting": "[1]; CHL-1, dose response 24 h", "value": "better able to inhibit p-HER3 and thus the PI3K/Akt pathway"}, {"measurement": "inhibition at 1 µM", "setting": "EGFR", "value": 99, "unit": "%"}, {"measurement": "inhibition at 1 µM", "setting": "KDR", "value": 74, "unit": "%"}, {"measurement": "inhibition at 1 µM", "setting": "GSK-3-BETA", "value": 40, "unit": "%"}, {"measurement": "inhibition at 1 µM", "setting": "CSK", "value": 62, "unit": "%"}, {"measurement": "inhibition at 1 µM", "setting": "MAPKAPK-2", "value": -6, "unit": "%"}, {"measurement": "inhibition at 1 µM", "setting": "MST2", "value": 84, "unit": "%"}, {"measurement": "inhibition at 1 µM", "setting": "MEK2", "value": 70, "unit": "%"}, {"measurement": "inhibition at 1 µM", "setting": "TYK2", "value": 51, "unit": "%"}, {"measurement": "inhibition at 1 µM", "setting": "CDK1", "value": 18, "unit": "%"}, {"measurement": "inhibition at 1 µM", "setting": "PI3K-ALPHA", "value": 6, "unit": "%"}, {"measurement": "inhibition at 1 µM", "setting": "CAMK4", "value": 0, "unit": "%"}, {"measurement": "inhibition at 1 µM", "setting": "MAPK1", "value": -2, "unit": "%"}, {"measurement": "inhibition at 1 µM", "setting": "FAK", "value": -10, "unit": "%"}, {"measurement": "near complete inhibition of multiple phosphosites on EGFR", "setting": "[2]", "value": "less than 10 nM"}]}
{"smiles": "CS(=O)(=O)CCNCc1ccc(-c2ccc3ncnc(Nc4ccc(OCc5cccc(F)c5)c(Cl)c4)c3c2)o1", "note": "[lapatinib]", "values": [{"measurement": "level of pathway inhibition distinguished by the Ba/F3 panel", "setting": "[3]", "value": "specifically inhibit signaling at the HER2/HER3 level"}]}
